Activity calls are given as the source filed them. No rule for the calls is given here.
Biological target: Dual specificity protein phosphatase 6 (Rattus norvegicus) (UniProt Q64346)
Assay: reproducibility of MKP-3 inhibition curves – biochemical, rat DUSP6, reproducibility testing, probe assessment, dose response (AID 566)
Settings: recombinant MKP-3 phosphatase, fluorescence substrate

Chain of Dual specificity protein phosphatase 6 (Rattus norvegicus) (Q64346 whole entry, looked up): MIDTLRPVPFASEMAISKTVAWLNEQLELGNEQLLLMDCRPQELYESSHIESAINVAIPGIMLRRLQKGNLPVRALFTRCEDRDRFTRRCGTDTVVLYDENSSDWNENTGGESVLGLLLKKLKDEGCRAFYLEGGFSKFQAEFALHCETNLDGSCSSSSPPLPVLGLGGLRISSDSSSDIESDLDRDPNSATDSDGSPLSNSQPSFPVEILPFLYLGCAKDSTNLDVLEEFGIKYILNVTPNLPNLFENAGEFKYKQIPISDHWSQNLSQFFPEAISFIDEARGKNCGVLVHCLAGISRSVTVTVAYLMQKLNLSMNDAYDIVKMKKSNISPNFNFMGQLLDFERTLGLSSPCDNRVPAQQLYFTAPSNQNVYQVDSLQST

IC50: > 50 µM (inactive)
Compound: O=C1C(C2=C(O)c3ccccc3C2=O)=Nc2ccccc21
